Results published in PubChem BioAssay AID278 (DTP/NCI, 2004).
Values joined by “and” are separate entries in the source; they are usually repeats but may differ in a detail not shown here. Equal values may be shown once. Inconclusive results are not listed.

Test system: nude mice, A549 intrarenal xenograft, tumor weight change
Assay: NCI In Vivo Anticancer Drug Screen. Data for tumor model A549 Human Adenocarcinoma of Lung with characteristics of Type II Alveolar Epithelial cells (intrarenal inoculation) in NU/NU BALB/C (nude) mice
Settings: endpoint: mean tumor weight change, schedule: Q04DX003 (ip), higher = larger tumour
Summary of the method: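 Mice bearing transplantable tumors were treated and survival or tumor size recorded. Values are given as treated-group measurement divided by vehicle-control measurement (T/C).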

[1] = dose: 25.0 mg/kg/injection, vehicle: saline
[2] = dose: 50.0 mg/kg/injection, vehicle: saline
[3] = dose: 300.0 mg/kg/injection, vehicle: DMSO
[4] = dose: 12.5 mg/kg/injection, vehicle: saline with Tween-80
[5] = dose: 25.0 mg/kg/injection, vehicle: saline with Tween-80
[6] = dose: 50.0 mg/kg/injection, vehicle: saline with Tween-80
[7] = dose: 150.0 mg/kg/injection, vehicle: saline with Tween-80
[8] = dose: 300.0 mg/kg/injection, vehicle: saline with Tween-80
[9] = dose: 100.0 mg/kg/injection, vehicle: saline with Tween-80
[10] = dose: 37.5 mg/kg/injection, vehicle: water
[11] = dose: 75.0 mg/kg/injection, vehicle: Klucel (hydroxypropylcellulose) (HPC)
[12] = dose: 150.0 mg/kg/injection, vehicle: Klucel (hydroxypropylcellulose) (HPC)
[13] = dose: 300.0 mg/kg/injection, vehicle: Klucel (hydroxypropylcellulose) (HPC)

SMILES: COc1cc2c(cc1OC)[C@@H]1C(=O)c3ccc4c(c3O[C@@H]1CO2)C[C@H](C(C)C)O4
- T/C (dose: 21.25 mg/kg/injection, vehicle: Klucel (hydroxypropylcellulose) (HPC)): 90 % of control
- T/C (dose: 42.5 mg/kg/injection, vehicle: Klucel (hydroxypropylcellulose) (HPC)): 87 % of control
- T/C (dose: 85.0 mg/kg/injection, vehicle: Klucel (hydroxypropylcellulose) (HPC)): 37 % of control

SMILES: C/C(=N\NC(=O)c1ccccc1O)c1cccc(/C(C)=N/NC(=O)c2ccccc2O)n1
- T/C [1]: 97 % of control
- T/C [2]: 71 % of control
- T/C (dose: 100.0 mg/kg/injection, vehicle: saline): 65 % of control
- T/C (dose: 200.0 mg/kg/injection, vehicle: saline): 77 % of control

SMILES: CC(CNC(=O)C12CC3CC(CC(C3)C1)C2)NC(=O)C12CC3CC(CC(C3)C1)C2 (centres undefined)
- T/C [3]: 106 % of control

SMILES: C/C(=N\NC(=S)N1CC2CCC(CC2)C1)c1nccs1
- T/C [4]: 62 % of control
- T/C [5]: 47 % of control
- T/C [6]: 32 % of control

SMILES: O=C(Nc1cc(Cl)ccc1C(=O)O)c1cccc(C[n+]2ccccc2)c1
- T/C [7]: 161 % of control
- T/C [8]: 86 % of control
- T/C (dose: 600.0 mg/kg/injection, vehicle: saline with Tween-80): 20 % of control

SMILES: CCOc1cc2c(cc1C(C)c1ccc(OC)cc1)OCO2 (centres undefined)
- T/C (dose: 54.0 mg/kg/injection, vehicle: distilled water + alcohol): 67 % of control
- T/C (dose: 90.0 mg/kg/injection, vehicle: distilled water + alcohol): 48 % of control
- T/C (dose: 250.0 mg/kg/injection, vehicle: distilled water + alcohol): 4 % of control

SMILES: [NH-]C(CCC(N)=O)C(=O)O.[NH-]C(CCC(N)=O)C(=O)O.[Zn+2] (centres undefined)
- T/C [5]: 83 % of control
- T/C [6]: 29 % of control
- T/C [9]: 54 % of control

SMILES: CO[C@@H]1C2=CC=CC=C[C@H]2n2c(=O)n(C)c(=O)n21
- T/C [10]: 223 % of control
- T/C (dose: 75.0 mg/kg/injection, vehicle: other): 32 % of control
- T/C (dose: 75.0 mg/kg/injection, vehicle: water): 195 % of control
- T/C (dose: 150.0 mg/kg/injection, vehicle: other): 74 % of control
- T/C (dose: 150.0 mg/kg/injection, vehicle: water): 158 % of control

SMILES: CCCCNc1ccc2nnc(C)n2n1
- T/C (dose: 75.0 mg/kg/injection, vehicle: DMSO): 75 % of control
- T/C (dose: 150.0 mg/kg/injection, vehicle: DMSO): 19 % of control
- T/C [3]: 65 % of control

SMILES: CC(=O)C[n+]1ccccc1Sc1ccc(Cl)cc1
- T/C [4]: 107 % of control
- T/C [5]: 80 % of control
- T/C [6]: 93 % of control
- T/C [9]: 79 % of control

SMILES: CCN(CC)c1ccc2[nH]c3c(C(N)=O)cc(=O)c(=O)c=3oc2c1
- T/C [7]: 84 % of control
- T/C [8]: 96 % of control

SMILES: CN(C)c1ccc2c(SCC(=O)OCC(=O)[C@@]3(O)CC[C@H]4[C@@H]5CCC6=CC(=O)C=C[C@]6(C)[C@H]5C(=O)C[C@@]43C)c3ccc(N(C)C)cc3nc2c1
- T/C [11]: 52 % of control
- T/C [12]: 62 % of control
- T/C [13]: 96 % of control

SMILES: CCOc1ccc(-c2nc3ccc(-c4nc5ccc(N6CCN(C)CC6)cc5[nH]4)cc3[nH]2)cc1
- T/C (dose: 6.25 mg/kg/injection, vehicle: saline): 155 % of control
- T/C [1]: 101 % of control
- T/C [2]: 171 % of control

SMILES: COC(=O)NC1C(C)OC(OC2C/C=C(/C)C3C=CC4C(OC5CC(OC6CC(OC7CC(O)C(O)C(C)O7)C(OC7CC(O)C(OC)C(C)O7)C(C)O6)C(O)C(C)O5)C(C)CC(C)C4C3(C)/C(O)=C3\C(=O)OC4(CC(C)C(CO)=CC4/C=C\2C)C3=O)CC1(C)[N+](=O)[O-] (centres undefined)
- T/C (dose: 9.38 mg/kg/injection, vehicle: water): 69 % of control
- T/C (dose: 18.75 mg/kg/injection, vehicle: water): 58 % of control
- T/C [10]: 76 % of control

SMILES: O=C(Nc1cccc(O)c1)C(Cl)=C(Cl)Cl
- T/C (dose: 18.0 mg/kg/injection, vehicle: other): 46 % of control
- T/C (dose: 25.0 mg/kg/injection, vehicle: DMSO): 108 % of control
- T/C (dose: 30.0 mg/kg/injection, vehicle: other): 50 % of control and 74 % of control
- T/C (dose: 50.0 mg/kg/injection, vehicle: DMSO): 18 % of control
- T/C (dose: 50.0 mg/kg/injection, vehicle: other): 76 % of control

SMILES: CCOC(=O)c1ccc(NN=NCCF)cc1
- T/C (dose: 75.0 mg/kg/injection, vehicle: distilled water + Tween-80 + alcohol): 114 % of control
- T/C (dose: 150.0 mg/kg/injection, vehicle: distilled water + Tween-80 + alcohol): 160 % of control
- T/C (dose: 300.0 mg/kg/injection, vehicle: distilled water + Tween-80 + alcohol): 63 % of control

SMILES: Cc1ccc(C2=CSC3=NCCN23)cc1Cl
- T/C (dose: 2.5 mg/kg/injection, vehicle: suspension in saline): 88 % of control
- T/C (dose: 5.0 mg/kg/injection, vehicle: saline): 119 % of control
- T/C (dose: 5.0 mg/kg/injection, vehicle: suspension in saline): 60 % of control
- T/C (dose: 10.0 mg/kg/injection, vehicle: suspension in saline): 44 % of control
- T/C (dose: 20.0 mg/kg/injection, vehicle: saline): 104 % of control
- T/C (dose: 20.0 mg/kg/injection, vehicle: suspension in saline): 102 % of control
- T/C (dose: 40.0 mg/kg/injection, vehicle: saline): 26 % of control

SMILES: CNC(=O)/C=C/C1=CN2C(=O)c3ccc(C)c(O)c3NC(OC)C2C1 (centres undefined)
- T/C (dose: 100.0 micrograms/kg/injection, vehicle: saline): 1 % of control
- T/C (dose: 200.0 micrograms/kg/injection, vehicle: saline): 20 % of control
- T/C (dose: 400.0 micrograms/kg/injection, vehicle: saline): 29 % of control
- T/C (dose: 800.0 micrograms/kg/injection, vehicle: saline): -17 % of control

SMILES: CCOC(=O)/C=C/C(=O)N1CCN(C(=O)/C=C/C(=O)OCC)C(C)C1 (centres undefined)
- T/C [12]: 50 % of control
- T/C [13]: 71 % of control
- T/C (dose: 600.0 mg/kg/injection, vehicle: Klucel (hydroxypropylcellulose) (HPC)): 49 % of control

SMILES: CC1=C(C(N)=O)C(c2ccccc2)NC(=S)N1 (centres undefined)
- T/C (dose: 37.5 mg/kg/injection, vehicle: Klucel (hydroxypropylcellulose) (HPC)): 66 % of control
- T/C [11]: 92 % of control
- T/C [12]: 83 % of control
- T/C [13]: 181 % of control

SMILES: CN(C)C(=O)Nc1ccc(Cl)cc1
- T/C (dose: 150.0 mg/kg/injection, vehicle: suspension in saline): 120 % of control
- T/C (dose: 300.0 mg/kg/injection, vehicle: suspension in saline): 74 % of control
- T/C (dose: 600.0 mg/kg/injection, vehicle: suspension in saline): 112 % of control

SMILES: O=S(=O)(O)c1cc(N=C=S)ccc1/C=C/c1ccc(N=C=S)cc1S(=O)(=O)O
- T/C (dose: 3.75 mg/kg/injection, vehicle: saline): 107 % of control
- T/C (dose: 7.5 mg/kg/injection, vehicle: saline): 64 % of control
- T/C (dose: 30.0 mg/kg/injection, vehicle: saline): 118 % of control

SMILES: Nc1ccc(S(=O)(=O)Nc2cnc3c(Cl)cccc3n2)cc1
- T/C (dose: 220.0 mg/kg/injection, vehicle: saline): 70 % of control
- T/C (dose: 315.0 mg/kg/injection, vehicle: saline): 53 % of control
- T/C (dose: 450.0 mg/kg/injection, vehicle: saline): 43 % of control
- T/C (dose: 642.9 mg/kg/injection, vehicle: saline): 52 % of control
